Laboratory results published in patent US8987314B2, “Amide, urea or sulfone amide linked benzothiazole inhibitors of endothelial lipase” (Bristol-Myers Squibb Company, priority 2012, dated 2015).
Like-named read-outs stand apart in the source and are kept apart here.

What was measured:
Endothelial lipase (EL) = Endothelial lipase (EL) (Homo sapiens (Human), UniProt Q9Y5X9); assay: EL assay: endothelial lipase activity with fluorescent substrate A10070 in DMPG vesicles; type: biochemical
Method in brief: (§1)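 Substrate A10070 sits in sonicated DMPG vesicles at 0.11 mole fraction. Lipase and compound preincubated 30 min, 37° C, in HEPES pH 8.0 buffer with CaCl2.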

hepatic lipase (HL) = hepatic lipase (HL) (Homo sapiens (Human), UniProt P11150); assay: HL assay: hepatic lipase activity with fluorescent substrate A10070 in DMPG vesicles; type: biochemical
Method in brief: as §1

[1] = EL from conditioned media of HT-1080 cells, 30 min incubation with compound at 37° C., A10070/DMPG vesicles
[2] = HL partially purified from conditioned media of COS cells, 30 min incubation with compound at 37° C., A10070/DMPG vesicles

Sequence of Endothelial lipase (EL) (Q9Y5X9 21-500): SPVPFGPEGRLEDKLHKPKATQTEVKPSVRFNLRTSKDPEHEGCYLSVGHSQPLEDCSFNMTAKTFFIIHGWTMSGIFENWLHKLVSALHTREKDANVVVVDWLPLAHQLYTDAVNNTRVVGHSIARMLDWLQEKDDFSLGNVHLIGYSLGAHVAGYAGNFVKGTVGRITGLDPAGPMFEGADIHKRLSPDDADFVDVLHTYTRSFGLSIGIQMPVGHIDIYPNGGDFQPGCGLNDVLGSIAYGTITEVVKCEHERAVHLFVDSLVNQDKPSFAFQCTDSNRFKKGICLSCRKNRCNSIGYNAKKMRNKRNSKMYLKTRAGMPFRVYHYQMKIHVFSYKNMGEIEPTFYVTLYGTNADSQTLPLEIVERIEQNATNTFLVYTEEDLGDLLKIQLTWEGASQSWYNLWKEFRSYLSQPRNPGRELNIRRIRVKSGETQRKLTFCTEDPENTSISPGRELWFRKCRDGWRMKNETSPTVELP
Sequence of hepatic lipase (HL) (P11150 23-499, species assumed): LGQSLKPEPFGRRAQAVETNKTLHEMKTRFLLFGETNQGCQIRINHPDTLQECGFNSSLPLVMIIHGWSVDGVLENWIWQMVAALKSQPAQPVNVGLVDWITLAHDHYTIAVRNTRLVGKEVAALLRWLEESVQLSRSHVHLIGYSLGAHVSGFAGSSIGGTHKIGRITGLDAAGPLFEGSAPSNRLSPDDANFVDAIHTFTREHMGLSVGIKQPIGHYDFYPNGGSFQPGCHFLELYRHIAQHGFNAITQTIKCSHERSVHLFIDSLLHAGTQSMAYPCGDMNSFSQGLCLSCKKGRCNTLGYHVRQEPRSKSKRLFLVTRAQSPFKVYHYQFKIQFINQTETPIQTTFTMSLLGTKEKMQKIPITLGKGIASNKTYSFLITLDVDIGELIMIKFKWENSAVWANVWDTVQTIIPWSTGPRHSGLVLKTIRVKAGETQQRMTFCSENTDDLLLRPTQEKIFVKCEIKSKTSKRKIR

With `COC1CN(C(=O)c2ccc(-c3ccc4nc(C(C(=O)NCCS(N)(=O)=O)S(C)(=O)=O)sc4c3)cc2)C1` (stereo not drawn) [Example B175, 2-(6-(4-((3-methoxy-1-azetidinyl)carbonyl)phen-yl)-1,3-benzothiazol-2-yl)-2-(methylsulfonyl)-N-(2-sulfamoylethyl)a-cetamide] the IC50 (Endothelial lipase (EL)) was < 10 nM and the IC50 (hepatic lipase (HL)) was 118 nM.
In the case of `CC1(O)CCN(C(=O)c2ccc(-c3ccc4nc(C(C(=O)NCCS(N)(=O)=O)S(C)(=O)=O)sc4c3)cc2)CC1` (stereo not drawn) [Example B176, 2-(6-(4-((4-hydroxy-4-methyl-1-piperidinyl)car-bonyl)phenyl)-1,3-benzothiazol-2-yl)-2-(methylsulfonyl)-N-(2-sulfamoylethyl)acetamide], the IC50 (Endothelial lipase (EL)) is reported as < 10 nM and the IC50 (hepatic lipase (HL)) is reported as 92 nM.
In the case of `CS(=O)(=O)C(C(=O)NCCS(N)(=O)=O)c1nc2ccc(-c3ccc(C(=O)N4CCC(O)CC4)cc3)cc2s1` (stereo not drawn) [Example B177, 2-(6-(4-((4-hydroxy-1-piperidinyl)carbonyl)phen-yl)-1,3-benzothiazol-2-yl)-2-(methylsulfonyl)-N-(2-sulfamoylethyl)a-cetamide], the IC50 (Endothelial lipase (EL)) is reported as < 10 nM and the IC50 (hepatic lipase (HL)) is reported as 495 nM.
For `CS(=O)(=O)C(C(=O)NCCS(N)(=O)=O)c1nc2ccc(-c3ccc(C(=O)NC4COC4)cc3)cc2s1` (stereo not drawn) [Example B178, 4-(2-(1-(methylsulfonyl)-2-oxo-2-((2-sulfamoylethyl)a-mino)ethyl)-1,3-benzothiazol-6-yl)-N-3-oxetanylbenzamide], the IC50 (Endothelial lipase (EL)) was < 10 nM and the IC50 (hepatic lipase (HL)) was 91 nM.
`COCCNC(=O)c1cccc(-c2ccc3nc(C(C(=O)NCCS(N)(=O)=O)S(=O)(=O)CCC(F)(F)F)sc3c2)c1` (stereo not drawn) [Example B179, N-(2-Methoxyethyl)-3-(2-(2-oxo-2-((2-sulfamoyl-ethyl)amino)-1-((3,3,3-trifluoropropyl)sulfonyl)eth-yl)benzo[d]thiazol-6-yl)benzamide] gave an IC50 (Endothelial lipase (EL)) of 24 nM and an IC50 (hepatic lipase (HL)) of 170 nM.
In the case of `CS(=O)(=O)C(C(=O)NCCS(N)(=O)=O)c1nc2ccc(-c3ccc4c(c3)CC(=O)N4)cc2s1` (stereo not drawn) [Example B180, 2-(Methylsulfonyl)-2-(6-(2-oxo-2,3-dihydro-1H-indol-5-yl)-1,3-benzothiazol-2-yl)-N-(2-sulfamoylethyl)acetamide], the IC50 (Endothelial lipase (EL); [1]) is reported as < 10 nM and the IC50 (hepatic lipase (HL); [2]) is reported as 170 nM.
For `CS(=O)(=O)C(C(=O)NCCS(N)(=O)=O)c1nc2ccc(-c3ccc4c(c3)C(=O)NC4)cc2s1` (stereo not drawn) [Example B181, 2-(methylsulfonyl)-2-(6-(3-oxo-2,3-dihydro-1H-isoindol-5-yl)-1,3-benzothiazol-2-yl)-N-(2-sulfamoylethyl)acetamide], the IC50 (Endothelial lipase (EL)) was < 10 nM and the IC50 (hepatic lipase (HL)) was 145 nM.
`CS(=O)(=O)C(C(=O)NCCS(N)(=O)=O)c1nc2ccc(-c3ccc4c(c3)CNC4=O)cc2s1` (stereo not drawn) [Example B182, 2-(methylsulfonyl)-2-(6-(1-oxo-2,3-dihydro-1H-isoindol-5-yl)-1,3-benzothiazol-2-yl)-N-(2-sulfamoylethyl)acetamide] was tested, and the IC50 (Endothelial lipase (EL)) was < 10 nM and the IC50 (hepatic lipase (HL)) was 36 nM.
With `CS(=O)(=O)C(C(=O)NCCS(N)(=O)=O)c1nc2ccc(-c3ccc4c(c3)NC(=O)C4)cc2s1` (stereo not drawn) [Example B183, 2-(methylsulfonyl)-2-(6-(2-oxo-2,3-dihydro-1H-indol-6-yl)-1,3-benzothiazol-2-yl)-N-(2-sulfamoylethyl)a-cetamide] the IC50 (Endothelial lipase (EL)) was < 10 nM and the IC50 (hepatic lipase (HL)) was 139 nM.
For `COc1ncccc1-c1ccc2nc(C(C(=O)NCCS(N)(=O)=O)S(C)(=O)=O)sc2c1` (stereo not drawn) [Example B184, 2-(6-(2-methoxy-3-pyridinyl)-1,3-benzothiazol-2-yl)-2-(methylsulfonyl)-N-(2-sulfamoylethyl)acetamide], the IC50 (Endothelial lipase (EL)) was < 10 nM and the IC50 (hepatic lipase (HL)) was 65 nM.
`COc1cccc(-c2ccc3nc(C(C(=O)NCCS(N)(=O)=O)S(C)(=O)=O)sc3c2)n1` (stereo not drawn) [Example B185, 2-(6-(6-methoxy-2-pyridinyl)-1,3-benzothiazol-2-yl)-2-(methylsulfonyl)-N-(2-sulfamoylethyl)acetamide] was tested, and the IC50 (Endothelial lipase (EL)) was < 10 nM and the IC50 (hepatic lipase (HL)) was < 10 nM.
`CC(C)(O)Cn1cc(-c2ccc3nc(C(C(=O)NCCS(N)(=O)=O)S(C)(=O)=O)sc3c2)ccc1=O` (stereo not drawn) [Example B186, 2-(6-(1-(2-hydroxy-2-methylpropyl)-6-oxo-1,6-dihydro-3-pyridinyl)-1,3-benzothiazol-2-yl)-2-(methylsulfonyl)-N-(2-sulfamoylethyl)acetamide] showed an IC50 (Endothelial lipase (EL)) of 1.1 nM and an IC50 (hepatic lipase (HL)) of 10000 nM.
Molecule `CS(=O)(=O)C(C(=O)NCCS(N)(=O)=O)c1nc2ccc(-c3ccc(O)nc3)cc2s1` (stereo not drawn) [Example B187, 2-(Methylsulfonyl)-2-(6-(6-oxo-1,6-dihydro-3-pyridinyl)-1,3-benzothiazol-2-yl)-N-(2-sulfamoylethyl)acetamide] has an IC50 (Endothelial lipase (EL); [1]) of 16 nM and an IC50 (hepatic lipase (HL); [2]) of 155 nM.
With `CS(=O)(=O)C(C(=O)NCCS(N)(=O)=O)c1nc2ccc(-c3cccc(O)n3)cc2s1` (stereo not drawn) [Example B188, 2-(methylsulfonyl)-2-(6-(6-oxo-1,6-dihydro-2-pyridinyl)-1,3-benzothiazol-2-yl)-N-(2-sulfamoylethyl)acetamide] the IC50 (Endothelial lipase (EL)) was < 10 nM and the IC50 (hepatic lipase (HL)) was 398 nM.
`CS(=O)(=O)C(C(=O)NCCS(N)(=O)=O)c1nc2ccc(-c3ccnc(O)c3)cc2s1` (stereo not drawn) [Example B189, 2-(methylsulfonyl)-2-(6-(2-oxo-1,2-dihydro-4-pyridinyl)-1,3-benzothiazol-2-yl)-N-(2-sulfamoylethyl)acetamide] was tested, and the IC50 (Endothelial lipase (EL)) was < 10 nM and the IC50 (hepatic lipase (HL)) was 13 nM.
With `COCCS(=O)(=O)C(C(=O)NCCS(N)(=O)=O)c1nc2ccc(-c3ccnc(O)c3)cc2s1` (stereo not drawn) [Example B190, 2-((2-methoxyethyl)sul-fonyl)-2-(6-(2-oxo-1,2-dihydro-4-pyridinyl)-1,3-benzothiazol-2-yl)-N-(2-sulfamoylethyl)acetamide] the IC50 (Endothelial lipase (EL)) was < 10 nM and the IC50 (hepatic lipase (HL)) was 272 nM.
For `NS(=O)(=O)CCNC(=O)C(c1nc2ccc(-c3ccnc(O)c3)cc2s1)S(=O)(=O)CCC(F)(F)F` (stereo not drawn) [Example B191, 2-(6-(2-oxo-1,2-dihydro-4-pyridinyl)-1,3-benzothiazol-2-yl)-N-(2-sulfamoylethyl)-2-((3,3,3-trifluoropropyl)sulfonyl)a-cetamide], the IC50 (Endothelial lipase (EL)) was < 10 nM and the IC50 (hepatic lipase (HL)) was 445 nM.
In the case of `CS(=O)(=O)C(C(=O)NCCS(N)(=O)=O)c1nc2ccc(-c3cc(O)ncc3F)cc2s1` (stereo not drawn) [Example B192, 2-(6-(5-fluoro-2-oxo-1,2-dihydro-4-pyridinyl)-1,3-benzothiazol-2-yl)-2-(methylsulfonyl)-N-(2-sulfamoylethyl)acetamide], the IC50 (Endothelial lipase (EL)) is reported as < 10 nM and the IC50 (hepatic lipase (HL)) is reported as 20600 nM.
`CS(=O)(=O)C(C(=O)NCCS(N)(=O)=O)c1nc2ccc(-c3ccnc(O)c3F)cc2s1` (stereo not drawn) [Example B193, 2-[6-(3-fluoro-2-hydroxy-4-pyridinyl)-1,3-benzothiazol-2-yl]-2-(methylsulfonyl)-N-(2-sulfamoylethyl)acetamide] showed an IC50 (Endothelial lipase (EL)) of 0.5 nM and an IC50 (hepatic lipase (HL)) of 238 nM.
In the case of `CS(=O)(=O)C(C(=O)NCCS(N)(=O)=O)c1nc2cc(-c3ccnc(O)c3)ccc2s1` (stereo not drawn) [Example B194, 2-(methylsulfonyl)-2-(5-(2-oxo-1,2-dihydro-4-pyridinyl)-1,3-benzothiazol-2-yl)-N-(2-sulfamoylethyl)acetamide], the IC50 (Endothelial lipase (EL)) is reported as 2 nM and the IC50 (hepatic lipase (HL)) is reported as 95 nM.
Molecule `CS(=O)(=O)C(C(=O)NCCS(N)(=O)=O)c1nc2cc(-c3ccc(O)nc3)ccc2s1` (stereo not drawn) [Example B195, 2-(methylsulfonyl)-2-(5-(6-oxo-1,6-dihydro-3-pyridinyl)-1,3-benzothiazol-2-yl)-N-(2-sulfamoylethyl)acetamide] has an IC50 (Endothelial lipase (EL)) of 1 nM and an IC50 (hepatic lipase (HL)) of 105 nM.
